Molecules are shown by their SMILES. Like-named read-outs stand apart in the source and are kept apart here.

A word on the EC50: it is the concentration needed to bring the measured effect to its halfway point. A word on the Emax: it is the greatest response seen or fitted, relative to the assay's reference.

The target in the assay is human cannabinoid CB2 receptor (Homo sapiens, UniProt P34972). Briefly: Cannabinoid CB2 receptor agonist activity (yeast reporter assay, FDGlu fluorescence). It is filed as cell-based. The conditions noted are these: for Emax: read-out: efficacy value (Emax relative to HU210) at the cloned human cannabinoid CB2 receptor. As to the method: Determination of Cannabinoid CB2 Receptor Agonist Activity
Chain of human cannabinoid CB2 receptor (P34972 whole entry): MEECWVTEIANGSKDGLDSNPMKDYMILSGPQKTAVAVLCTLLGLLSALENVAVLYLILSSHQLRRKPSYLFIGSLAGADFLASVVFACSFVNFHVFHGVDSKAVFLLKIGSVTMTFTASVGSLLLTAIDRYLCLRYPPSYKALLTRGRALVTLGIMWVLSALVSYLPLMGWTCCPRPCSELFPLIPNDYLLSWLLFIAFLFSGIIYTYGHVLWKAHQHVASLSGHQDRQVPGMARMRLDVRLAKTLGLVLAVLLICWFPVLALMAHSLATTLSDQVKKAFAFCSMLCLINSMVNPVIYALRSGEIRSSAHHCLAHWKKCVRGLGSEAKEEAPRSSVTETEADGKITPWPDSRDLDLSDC
The cannabinoid CB2 receptor agonist activity of the compounds of formula (I)-(IV) was determined in accordance with the following experimental method.
Yeast (Saccharomyces cerevisiae) cells expressing the human cannabinoid CB2 receptor were generated by integration of an expression cassette into the ura3 chromosomal locus of yeast strain MMY23. This cassette consisted of DNA sequence encoding the human CB2 receptor flanked by the yeast GPD promoter to the 5′ end of CB2 and a yeast transcriptional terminator sequence to the 3′ end of CB2. MMY23 expresses a yeast/mammalian chimeric G-protein alpha subunit in which the C-terminal 5 amino acids of Gpa1 are replaced with the C-terminal 5 amino acids of human Gαi3 (as described in Brown et al. (2000), Yeast 16:11-22). Cells were grown at 30° C. in liquid Synthetic Complete (SC) yeast media (Guthrie and Fink (1991), Methods in Enzymology, Vol. 194) lacking uracil, tryptophan, adenine and leucine to late logarithmic phase (approximately 6 OD600/ml).
Agonists were prepared as 10 mM stocks in DMSO. […] Agonist solutions in DMSO (1% final assay volume) were transferred into black, clear bottom, microtitre plates from NUNC (96- or 384-well). Cells were suspended at a density of 0.2 OD600/ml in SC media lacking histidine, uracil, tryptophan, adenine and leucine and supplemented with 10 mM 3-aminotriazole, 0.1M sodium phosphate pH 7.0, and […] fluorescein di-β-D-glucopyranoside (FDGlu). This mixture (50 ul per well for 384-well plates, 200 ul per well for 96-well plates) was added to agonist in the assay plates (Multidrop 384, Labsystems). After incubation at 30° C. for 24 hours, fluorescence resulting from degradation of FDGlu to fluorescein due to exoglucanase, an endogenous yeast enzyme produced during agonist-stimulated cell growth, was determined using a Spectrofluor microtitre plate reader (Tecan; excitation wavelength: 485 nm; emission wavelength: 535 nm). Fluorescence was plotted against compound concentration and iteratively curve fitted using a four parameter fit to generate a concentration effect value. Efficacy (Emax) was calculated from the equation
where Max[compound X] and Min[compound X] are the fitted maximum and minimum respectively from the concentration effect curve for compound X, and Max[HU210] and Min[HU210] are the fitted maximum and minimum respectively from the concentration effect curve for (6aR,10aR)-3-(1,1′-Dimethylheptyl)-6a,7,10,10a-tetrahydro-1-hydroxy-6,6-dimethyl-6H-dibenzo[b,d]pyran-9-methanol (HU210; available from Tocris). Equieffective molar ratio (EMR) values were calculated from the equation
Where EC50 [compound X] is the EC50 of compound X and EC50 [HU210] is the EC50 of HU210.
Background: A reporter such as luciferase makes a cellular process visible.

Setting [1] is: EC50 value at the cloned human cannabinoid CB2 receptor.
[2] abbreviates: read-out: EC50 value at the cloned human cannabinoid CB2 receptor.

For the compound `O=C(NCC1CCOCC1)c1cnc(Nc2cccc(F)c2)nc1C(F)(F)F` [Example 31, 2-(3-Fluorophenylamino)-4-trifluoromethylpyrimidine-5-carboxylic acid (tetrahydropyran-4-ylmethyl)amide], the Emax was greater than 50%. Besides, the EC50 under setting [1] was in the range of 0.02 to 0.3 µM.
The matching figures for `O=C(NCC1(O)CCCCC1)c1cnc(Nc2cccc(Br)c2)nc1C(F)(F)F` [Example 165, 2-(3-Bromophenylamino)-4-trifluoromethyl-pyrimidine-5-carboxylic acid (1-hydroxycyclohexylmethyl)-amide]: greater than 50% and 0.02 to 0.3 µM.
The like results for `O=C(NC1CCCC1)c1cnc(Nc2cccc(Cl)c2Cl)nc1C(F)(F)F` [Example 77, 2,3-Dichlorophenylamino-4-trifluoromethyl-pyrimidine-5-carboxylic acid cyclopentylamide] were, in that order, greater than 50% and 0.3 to 1 µM.
For the compound `Cc1c(Cl)cccc1Nc1ncc(C(=O)NCC2CCOCC2)c(C(F)(F)F)n1` [Example 185, 2-(3-Chloro-2-methylphenylamino)-4-trifluoromethyl-pyrimidine-5-carboxylic acid (tetrahydropyran-4-ylmethyl)-amide], the maximum response (Emax) is greater than 50%. The half-maximal effective concentration (EC50) under setting [1] lay within 0.02 to 0.3 µM.
The matching figures for `CC(C)(C)CNC(=O)c1cnc(Nc2cccc(Cl)c2)nc1C(F)(F)F` [Example 28, 2-(3-Chloro-phenylamino)-4-trifluoromethyl-pyrimidine-5-carboxylic acid (2,2-dimethyl-propyl)-amide]: greater than 50% and 0.3 to 1 µM.
`O=C(NCc1ccncc1)c1cnc(Nc2ccc(Cl)c(Cl)c2)nc1C(F)(F)F` [Example 283, 2-(3,4-Dichlorophenylamino)-4-trifluoromethylpyrimidine-5-carboxylic acid (pyridin-4-ylmethyl)amide] showed a concentration for a half-maximal effect (EC50) under setting [1] of 0.02 to 0.3 µM.
Turning to `O=C(NCC1CCC1)c1cnc(Nc2ccc(C(F)(F)F)cc2Cl)nc1C(F)(F)F` [Example 102, 2-(2-Chloro-4-trifluoromethylphenylamino)-4-trifluoromethyl-pyrimidine-5-carboxylic acid cyclobutylmethyl-amide], the Emax was greater than 50%. This compound also registered a 50% effective concentration (EC50) under setting [1] of 0.3 to 1 µM.
For `O=C(NCc1ccncc1)c1cnc(Nc2ccc(Cl)cc2Cl)nc1C(F)(F)F` [Example 282, 2-(2,4-Dichlorophenylamino)-4-trifluoromethylpyrimidine-5-carboxylic acid (pyridin-4-ylmethyl)amide], the concentration for a half-maximal effect (EC50) under setting [1] lay in the range of 0.02 to 0.3 µM.
Regarding `O=C(NCC1CCCC1)c1cnc(Nc2cc(F)ccc2Cl)nc1C(F)(F)F` [Example 249, 2-(2-Chloro-5-fluoro-phenylamino)-4-trifluoromethyl-pyrimidine-5-carboxylic acid cyclopentylmethyl-amide], the Emax was greater than 50%. In addition, under setting [1], the concentration for a half-maximal effect (EC50) is 0.02 to 0.3 µM.
The like results for `O=C(NC1CCC1)c1cnc(Nc2cc(Cl)cc(Cl)c2)nc1C(F)(F)F` [Example 52, 2-(3,5-Dichlorophenylamino)-4-trifluoromethylpyrimidine-5-carboxylic acid cyclobutylamide] were, in that order, greater than 50% and 0.02 to 0.3 µM.
In the case of `O=C(NCc1ccc(F)cc1)c1cnc(Nc2ccc(Cl)c(Cl)c2)nc1C(F)(F)F` [Example 367, 2-(3,4-Dichloro-phenylamino)-4-trifluoromethyl-pyrimidine-5-carboxylic acid 4-fluoro-benzylamide], the 50% effective concentration (EC50) under setting [1] lay within 0.02 to 0.3 µM.
Take `O=C(NCC1CCCCC1)c1cnc(Nc2ccccc2)nc1C(F)(F)F` [Example 5]: the Emax was greater than 50%.
With `O=C(NC1CCC1)c1cnc(Nc2cccc(Br)c2)nc1C(F)(F)F` [Example 47, 2-(3-Bromophenylamino)-4-trifluoromethylpyrimidine-5-carboxylic acid cyclobutylamide], under setting [2], the concentration for a half-maximal effect (EC50) was in the range of 0.02 to 0.3 µM.
Take `O=C(NCC1CCCCC1)c1cnc(Nc2ccc(Cl)cc2Br)nc1C(F)(F)F` [Example 238, 2-(2-Bromo-4-chloro-phenylamino)-4-trifluoromethyl-pyrimidine-5-carboxylic acid cyclohexylmethyl-amide]: the maximal response (Emax) is greater than 50%. The compound also registered an EC50 under setting [1] of 0.02 to 0.3 µM.
For the compound `COc1cccc(Nc2ncc(C(=O)NCC3CCCCC3)c(C(F)(F)F)n2)c1` [Example 163, 2-(3-Methoxyphenylamino)-4-trifluoromethyl-pyrimidine-5-carboxylic acid cyclohexylmethyl-amide], the EC50 under setting [2] fell in the range of 0.02 to 0.3 µM.
`N#Cc1ccc(Nc2ncc(C(=O)NCc3ccc(F)cc3)c(C(F)(F)F)n2)cc1Cl` [Example 351, 2-(3-Chloro-4-cyano-phenylamino)-4-trifluoromethyl-pyrimidine-5-carboxylic acid 4-fluoro-benzylamide]: the maximal effect (Emax) is greater than 50%. Also, under setting [1], the half-maximal effective concentration (EC50) was 0.02 to 0.3 µM.
The like results for `O=C(NCC1CCCCC1)c1cnc(Nc2cc(C(F)(F)F)cc(C(F)(F)F)c2)nc1C(F)(F)F` [Example 88, 2-(3,5-Bis-trifluoromethyl-phenylamino)-4-trifluoromethyl-pyrimidine-5-carboxylic acid cyclohexylmethyl-amide] were, in that order, greater than 50% and 0.3 to 1 µM.
The like results for `O=C(NCC1CCC1)c1cnc(Nc2cccc(F)c2)nc1C(F)(F)F` [Example 198, 2-(3-Fluorophenylamino)-4-trifluoromethyl-pyrimidine-5-carboxylic acid cyclobutylmethyl-amide] were, in that order, greater than 50% and 0.02 to 0.3 µM.
The like results for `O=C(NCC1CCCCC1)c1cnc(Nc2ccc(Br)cc2F)nc1C(F)(F)F` [Example 231, 2-(2-Fluoro-4-bromo-phenylamino)-4-trifluoromethyl-pyrimidine-5-carboxylic acid cyclohexylmethyl-amide] were, in that order, greater than 50% and 0.02 to 0.3 µM.
Turning to `COc1cccc(Nc2ncc(C(=O)NC3CCC3)c(C(F)(F)F)n2)c1` [Example 53, 2-(3-Methoxyphenylamino)-4-trifluoromethylpyrimidine-5-carboxylic acid cyclobutylamide], the Emax is greater than 50%. Besides, the concentration for a half-maximal effect (EC50) under setting [1] was 0.02 to 0.3 µM.
Turning to `O=C(NCC1CCOCC1)c1cnc(Nc2ccc(F)cc2F)nc1C(F)(F)F` [Example 98, 2-(2,4-Difluorophenylamino)-4-trifluoromethyl-pyrimidine-5-carboxylic acid (tetrahydro-pyran-4-ylmethyl)-amide], the Emax was greater than 50%. The compound further came in with a concentration giving a half-maximal response (EC50) under setting [1] of 0.3 to 1 µM.
On to `Cc1c(Cl)cccc1Nc1ncc(C(=O)NCC2CCCCC2)c(C(F)(F)F)n1` [Example 93, 2-(3-Chloro-2-methyl-phenylamino)-4-trifluoromethyl-pyrimidine-5-carboxylic acid cyclohexylmethyl-amide], for which the maximal effect (Emax) is greater than 50%. This compound returned an EC50 under setting [1] of 0.3 to 1 µM.
For the compound `O=C(NCc1ccccc1Br)c1cnc(Nc2cccc(Cl)c2)nc1C(F)(F)F` [2-(3-Chloro-phenylamino)-4-trifluoromethyl-pyrimidine-5-carboxylic acid 2-bromo-benzylamide], the “activity in the CB2 assay described herein” value is “inactive”.
With `O=C(c1cnc(Nc2ccccc2)nc1C(F)(F)F)N1CCCCC1` [Example 24, 1-(2-Phenylamino-4-trifluoromethyl-pyrimidin-5-yl)-1-piperidin-1-yl-methanone], the Emax is greater than 50%. Also, the concentration for a half-maximal effect (EC50) under setting [1] was 0.3 to 1 µM.
The like results for `O=C(NC1CCC1)c1cnc(Nc2ccc(Cl)cc2Cl)nc1C(F)(F)F` [Example 49, 2-(2,4-Dichlorophenylamino)-4-trifluoromethylpyrimidine-5-carboxylic acid cyclobutylamide] were, in that order, greater than 50% and 0.02 to 0.3 µM.
On to `O=C(NCC1CCOCC1)c1cnc(Nc2ccc(Cl)cc2F)nc1C(F)(F)F` [Example 99, 2-(2-Fluoro-4-chlorophenylamino)-4-trifluoromethyl-pyrimidine-5-carboxylic acid (tetrahydro-pyran-4-ylmethyl)-amide], for which the maximum response (Emax) was greater than 50%. Under setting [1], the EC50 lay in the range of 0.3 to 1 µM.
The matching figures for `O=C(NCC1CCOCC1)c1cnc(Nc2ccc(Cl)cc2Br)nc1C(F)(F)F` [Example 239, 2-(2-Bromo-4-chloro-phenylamino)-4-trifluoromethyl-pyrimidine-5-carboxylic acid (tetrahydro-pyran-4-ylmethyl)-amide]: greater than 50% and 0.02 to 0.3 µM.
As for `O=C(c1cnc(Nc2cccc(Br)c2)nc1C(F)(F)F)N1CCCCC1` [Example 12], the Emax was greater than 50%.

Values taken from US20080132505A1 (Glaxo Group Limited, priority 2004, published 2008).
